pIC50: −log10 of the molar value. Like-named read-outs stand apart in the source and are kept apart here.
Experiments:
[1] = biological target: T1, human adrenergic-α2A receptor (Homo sapiens, UniProt P08913); test: Radioligand binding experiment for hα2A receptor ([3H]raulwolscine, CHO cell membranes); settings: for IC50: [3H]raulwolscine 1 nM, membranes of CHO cells transfected with human α2A receptor, read-out: h-α2A pIC50 (converted)
T1 construct: expressed in transfected cells; host or cells: CHO cells, stably transfected; membranes
T1 sequence (P08913 1-465): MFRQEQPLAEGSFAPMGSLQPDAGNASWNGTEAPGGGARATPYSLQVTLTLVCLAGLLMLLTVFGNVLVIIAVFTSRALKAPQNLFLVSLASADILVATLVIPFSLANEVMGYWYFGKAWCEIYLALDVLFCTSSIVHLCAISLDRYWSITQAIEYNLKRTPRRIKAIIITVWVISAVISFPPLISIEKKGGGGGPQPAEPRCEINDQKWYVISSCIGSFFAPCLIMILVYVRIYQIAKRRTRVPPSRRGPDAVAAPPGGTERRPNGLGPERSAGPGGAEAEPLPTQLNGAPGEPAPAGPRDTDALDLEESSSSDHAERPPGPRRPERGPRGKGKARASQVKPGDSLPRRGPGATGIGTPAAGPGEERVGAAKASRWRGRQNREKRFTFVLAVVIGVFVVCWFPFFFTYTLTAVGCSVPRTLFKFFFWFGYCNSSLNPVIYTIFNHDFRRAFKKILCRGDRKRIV
Experimental: (§1) The interaction of a compound of Formula (I) with α2C-adrenoceptor receptors was assessed in in vitro radioligand binding experiments. In general, a low concentration of a radioligand with a high binding affinity for a particular receptor or transporter is incubated with a sample of a tissue preparation enriched in a particular receptor or transporter or with a preparation of cells expressing cloned human receptors in a buffered medium. During the incubation, the radioligand binds to the receptor or transporter. When equilibrium of binding is reached, the receptor bound radioactivity is separated from the non-bound radioactivity, and the receptor- or transporter-bound activity is counted. The interaction of the test compounds with the receptor is assessed in competition binding experiments. Various concentrations of the test compound are added to the incubation mixture containing the receptor- or transporter preparation and the radioligand. The test compound in proportion to its binding affinity and its concentration inhibits binding of the radioligand. The radioligand used for hα2A and hα2C receptor binding was [^3H]-raulwolscine.
(§2) CHO cells, stabile transfected with human adrenergic-α2A and α2C receptor cDNA, were cultured in Dulbecco's Modified Eagle's Medium (DMEM)/Nutrient mixture Ham's F12 (ratio 1:1) (Gibco, Gent-Belgium) supplemented with 10% heat inactivated fetal calf serum (Life Technologies, Merelbeke-Belgium) and antibiotics (100 IU/ml penicillin G, 100 μg/ml streptomycin sulphate, 110 μg/ml pyruvic acid and 100 μg/ml L-glutamine). One day before collection, cells were induced with 5 mM sodiumbutyrate. Upon 80-90% of confluence, cells were scraped in phosphate buffered saline without Ca^2+ and Mg^2+ and collected by centrifugation at 1500×g for 10 minutes. The cells were homogenised in Tris-HCl 50 mM using an Ultraturrax homogenizer and centrifuged for 10 minutes at 23,500×g. The pellet was washed once by resuspension and rehomogenization and the final pellet was resuspended in Tris-HCl, divided in 1 ml aliquots and stored at −70° C.
(§3) Membranes were thawed and re-homogenized in incubation buffer (glycylglycine 25 mM, pH 8.0). […] Filters were rinsed extensively with ice-cold rinsing buffer (Tris-HCl 50 mM pH 7.4). Filter-bound radioactivity was determined by scintillation counting in a Topcount (Packard, Meriden, Conn.) and results were expressed as counts per minute (cpm). Non-specific binding was determined in the presence of 1 μM oxymetazoline for the hα2A receptor and 1 μM spiroxatrine for hα2C receptors.
(§4) Data from assays in the presence of compound were calculated as a percentage of total binding measured in the absence of test compound. Inhibition curves, plotting percent of total binding versus the log value of the concentration of the test compound, were automatically generated, and sigmoidal inhibition curves were fitted using non-linear regression. The pIC50 values of test compounds were derived from individual curves.

[2] = biological target: T2, human adrenergic-α2C receptor (Homo sapiens, UniProt P18825); test: Radioligand binding experiment for α2C-adrenoceptor ([3H]raulwolscine, CHO cell membranes); settings: for IC50: [3H]raulwolscine 1 nM, membranes of CHO cells transfected with human α2C receptor, read-out: h-α2C pIC50 (converted)
T2 construct: expressed in transfected cells; host or cells: CHO cells, stably transfected; membranes
T2 sequence (P18825 1-462): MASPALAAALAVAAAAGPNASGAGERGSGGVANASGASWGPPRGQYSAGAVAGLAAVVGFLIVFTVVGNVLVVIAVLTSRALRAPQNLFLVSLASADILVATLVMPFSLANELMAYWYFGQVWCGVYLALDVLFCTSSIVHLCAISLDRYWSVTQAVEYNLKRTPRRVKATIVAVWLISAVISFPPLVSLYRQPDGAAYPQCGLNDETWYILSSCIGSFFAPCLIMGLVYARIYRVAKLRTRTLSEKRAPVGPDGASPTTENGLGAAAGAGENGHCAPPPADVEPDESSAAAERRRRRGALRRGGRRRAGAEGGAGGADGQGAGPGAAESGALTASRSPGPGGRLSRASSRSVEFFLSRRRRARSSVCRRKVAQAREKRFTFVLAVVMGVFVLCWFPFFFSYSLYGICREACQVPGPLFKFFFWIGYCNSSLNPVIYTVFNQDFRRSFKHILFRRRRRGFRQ
Experimental: as §1, §2, §3, §4

[3] = biological target: T3, 5HT-Transporter (Homo sapiens, UniProt P31645); test: Binding experiment for the 5HT-transporter ([3H]paroxetine, human platelet membranes); settings: for IC50: [3H]paroxetine 0.5 nM, read-out: h-5HTT pIC50 (converted); for pIC50: h-5HTT pIC50, [3H]paroxetine 0.5 nM
T3 construct: Human platelet membranes (Oceanix Biosciences Corporation, Hanover, Md., USA) were thawed; tissue Oceanix Biosciences Corporation; host or cells: human platelet membranes
T3 sequence (P31645 whole entry): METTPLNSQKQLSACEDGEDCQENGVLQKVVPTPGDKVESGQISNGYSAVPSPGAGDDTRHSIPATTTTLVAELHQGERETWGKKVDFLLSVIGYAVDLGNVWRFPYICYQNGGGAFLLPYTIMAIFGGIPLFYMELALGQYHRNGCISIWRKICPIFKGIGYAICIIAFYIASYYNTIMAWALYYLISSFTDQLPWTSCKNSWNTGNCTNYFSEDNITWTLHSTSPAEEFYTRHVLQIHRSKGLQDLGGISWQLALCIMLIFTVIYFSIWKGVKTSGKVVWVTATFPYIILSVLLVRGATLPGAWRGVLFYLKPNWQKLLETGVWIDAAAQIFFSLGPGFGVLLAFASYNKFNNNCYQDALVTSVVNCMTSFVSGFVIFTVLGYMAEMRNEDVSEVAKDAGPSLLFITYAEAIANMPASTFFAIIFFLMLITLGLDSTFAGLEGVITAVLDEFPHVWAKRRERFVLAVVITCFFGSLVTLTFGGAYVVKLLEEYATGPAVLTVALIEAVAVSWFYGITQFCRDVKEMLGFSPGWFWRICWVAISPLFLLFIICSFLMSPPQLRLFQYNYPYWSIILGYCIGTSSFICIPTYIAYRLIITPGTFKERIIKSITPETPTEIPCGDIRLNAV
Experimental: as §1
Human platelet membranes (Oceanix Biosciences Corporation, Hanover, Md., USA) were thawed, diluted in buffer (Tris-HCl 50 mM, 120 mM NaCl and 5 mM KCl) and quickly (max 3 s) homogenised with an Ultraturrax homogenizer. […] Incubation was stopped by rapid filtration of the incubation mixture over GF/B filters, pre-wetted with 0.1% polyethyleneamine, using a Filtermate196 harvester (Packard, Meriden, Conn.). Filters were rinsed extensively with ice-cold buffer and radioactivity on the filters was counted in a Topcount liquid scintillation counter (Packard, Meriden, Conn.). Data were expressed as cpm. Imipramine (at 1 μM final concentration) was used to determine the non-specific binding.
as §4

| Structure (SMILES) | IC50 [1] | IC50 [2] | IC50 [3] | pIC50 [1] | pIC50 [2] | pIC50 [3] |
| --- | --- | --- | --- | --- | --- | --- |
| CC(C)(C)OC(=O)NCCCn1ccnc(NC2CCN(CCc3ccccc3)CC2)c1=O [Compound 6-4] | 3160 nM | 631 nM | > 10000 nM | – | – | – |
| O=c1c(NC2CCN(CCc3ccccc3)CC2)nccn1CCN1CCCCC1 [Compound 6-5] | 1580 nM | 316 nM | > 10000 nM | – | – | – |
| O=C1c2ccccc2C(=O)N1CCCn1ccnc(NC2CCN(CCc3ccccc3)CC2)c1=O [Compound 6-6] | 3980 nM | 158 nM | 1580 nM | – | – | – |
| O=c1c(NC2CCN(CCc3ccccc3)CC2)nccn1Cc1ccccc1Br [Compound 6-7] | 794 nM | 398 nM | 5010 nM | – | – | – |
| O=c1c(NC2CCN(CCc3ccccc3)CC2)nccn1Cc1cccc(Br)c1 [Compound 6-8] | – | – | – | 6.00 | 6.40 | 5.30 |
| O=c1c(NC2CCN(CCc3ccccc3)CC2)nccn1Cc1ccc(Br)cc1 [Compound 6-9] | 1260 nM | 316 nM | 6310 nM | – | – | – |
| NCc1ccc(Cn2ccnc(NC3CCN(CCCc4ccccc4)CC3)c2=O)cc1 [Compound 7-1] | 316 nM | 100 nM | 794 nM | – | – | – |
| CC(C)(C)OC(=O)NCCCn1ccnc(NC2CCN(CCCc3ccccc3)CC2)c1=O [Compound 7-2] | 794 nM | 79.4 nM | 3160 nM | – | – | – |
| CC(C)(C)OC(=O)NCc1ccc(Cn2ccnc(NC3CCN(CCCc4ccccc4)CC3)c2=O)cc1 [Compound 7-3] | 1580 nM | 398 nM | 1580 nM | – | – | – |
| O=c1c(NC2CCN(CCCc3ccccc3)CC2)nccn1CCN1CCCCC1 [Compound 7-4] | 1580 nM | 126 nM | > 10000 nM | – | – | – |
| O=C1c2ccccc2C(=O)N1CCCn1ccnc(NC2CCN(CCCc3ccccc3)CC2)c1=O [Compound 7-5] | – | – | – | 6.30 | 7.70 | 6.00 |
| COC(=O)Cn1ccnc(NC2CCN(CCCc3ccccc3)CC2)c1=O [Compound 7-6] | 3980 nM | 794 nM | > 10000 nM | – | – | – |
| O=c1[nH]ccnc1NC1CCN(CCCc2ccccc2)CC1 [Compound 7-7] | – | – | – | 5.80 | 6.10 | < 5.00 |
| CCCn1ccnc(NC2CCN(CCCc3ccccc3)CC2)c1=O [Compound 7-8] | 794 nM | 501 nM | 5010 nM | – | – | – |
| CC(C)(C)C(=O)Cn1ccnc(NC2CCN(CCCc3ccccc3)CC2)c1=O [Compound 7-10] | 1260 nM | 316 nM | > 10000 nM | – | – | – |
| O=c1c(NC2CCN(CCCc3ccccc3)CC2)nccn1Cc1ccccc1Br [Compound 7-11] | 1580 nM | 398 nM | 2000 nM | – | – | – |
| O=c1c(NC2CCN(CCCc3ccccc3)CC2)nccn1Cc1cccc(Br)c1 [Compound 7-12] | 2000 nM | 501 nM | 2510 nM | – | – | – |
| O=c1c(NC2CCN(CCCc3ccccc3)CC2)nccn1Cc1ccc(Br)cc1 [Compound 7-13] | 1580 nM | 501 nM | 1000 nM | – | – | – |

| Structure (SMILES) | IC50 [1] | IC50 [2] | IC50 [3] | pIC50 [1] | pIC50 [2] | pIC50 [3] |
| --- | --- | --- | --- | --- | --- | --- |
| O=C(Cn1ccnc(NC2CCN(CCCc3ccccc3)CC2)c1=O)c1ccccc1 [Compound 7-14] | 501 nM | 398 nM | 3980 nM | – | – | – |
| CSCCn1ccnc(NC2CCN(CCCc3ccccc3)CC2)c1=O [Compound 7-15] | 1000 nM | 398 nM | 3160 nM | – | – | – |
| CN(CCc1ccccc1)C1CCN(c2nccn(CCCN3C(=O)c4ccccc4C3=O)c2=O)CC1 [Compound 8-1] | 1000 nM | 25.1 nM | 3160 nM | – | – | – |
| CN(CCc1ccccc1)C1CCN(c2nccn(CCC(=O)c3ccccc3)c2=O)CC1 [Compound 8-2] | 316 nM | 63.1 nM | > 10000 nM | – | – | – |
| NCc1ccc(Cn2ccnc(NC3CCN(CC(c4ccccc4)c4ccccc4)CC3)c2=O)cc1 [Compound 9-2] | 794 nM | 631 nM | 2510 nM | – | – | – |
| CC(C)(C)OC(=O)NCCCn1ccnc(NC2CCN(CC(c3ccccc3)c3ccccc3)CC2)c1=O [Compound 9-3] | 3980 nM | 316 nM | > 10000 nM | – | – | – |
| CC(C)(C)OC(=O)NCc1ccc(Cn2ccnc(NC3CCN(CC(c4ccccc4)c4ccccc4)CC3)c2=O)cc1 [Compound 9-4] | 3160 nM | 631 nM | > 10000 nM | – | – | – |
| O=c1c(NC2CCN(CC(c3ccccc3)c3ccccc3)CC2)nccn1CCN1CCCCC1 [Compound 9-5] | 2510 nM | 794 nM | > 10000 nM | – | – | – |
| O=C1c2ccccc2C(=O)N1CCCn1ccnc(NC2CCN(CC(c3ccccc3)c3ccccc3)CC2)c1=O [Compound 9-6] | 1260 nM | 398 nM | 6310 nM | – | – | – |
| O=c1c(NC2CCN(CC(c3ccccc3)c3ccccc3)CC2)nccn1Cc1ccccc1Br [Compound 9-7] | 1000 nM | 631 nM | > 10000 nM | – | – | – |
| O=c1c(NC2CCN(CC(c3ccccc3)c3ccccc3)CC2)nccn1Cc1cccc(Br)c1 [Compound 9-8] | 1260 nM | 631 nM | 5010 nM | – | – | – |
| O=c1c(NC2CCN(CC(c3ccccc3)c3ccccc3)CC2)nccn1Cc1ccc(Br)cc1 [Compound 9-9] | 1260 nM | 501 nM | 6310 nM | – | – | – |
| O=C(Cn1ccnc(NC2CCN(CC(c3ccccc3)c3ccccc3)CC2)c1=O)c1ccccc1 [Compound 9-10] | 2510 nM | 631 nM | > 10000 nM | – | – | – |
| NCc1ccc(Cn2ccnc(N3CCN(CCc4ccccc4)CC3)c2=O)cc1 [Compound 10-1] | 794 nM | 631 nM | > 10000 nM | – | – | – |
| CC(C)(C)OC(=O)NCc1ccc(Cn2ccnc(N3CCN(Cc4ccccc4)CC3)c2=O)cc1 [Compound 10-2] | 251 nM | 316 nM | > 10000 nM | – | – | – |
| C=CCn1ccnc(N2CCN(CCc3ccccc3)CC2)c1=O [Compound 10-4] | 2510 nM | 631 nM | > 10000 nM | – | – | – |
| O=c1c(N2CCN(Cc3ccccc3)CC2)nccn1C/C=C/c1ccccc1 [Compound 10-5] | 316 nM | 631 nM | > 10000 nM | – | – | – |
